Values joined by “and” are separate entries in the source; they are usually repeats but may differ in a detail not shown here. Equal values may be shown once. Read-outs that look alike come from different tables or passages of the source.
What was measured:
[1] = system: MHCC97H cells; test: MTT antiproliferative assay; format: cell-based, human
From the text: On the basis of our former study, compounds 12a-b were designed and first screened for their antiproliferative activity against the c-Met-driven human hepatocarcinoma cells (MHCC97H), using a standard MTT assay. Tepotinib was used as a positive control.

[2] = target: T1, c-Met kinase (Homo sapiens, UniProt P08581); test: c-Met kinase inhibition assay (Mobility Shifting Assay); format: biochemical; conditions: mean ± SD of three independent experiments
T1 construct: purchased Carna Bioscience 08-151
T1 sequence (P08581 956-1390 limits assumed): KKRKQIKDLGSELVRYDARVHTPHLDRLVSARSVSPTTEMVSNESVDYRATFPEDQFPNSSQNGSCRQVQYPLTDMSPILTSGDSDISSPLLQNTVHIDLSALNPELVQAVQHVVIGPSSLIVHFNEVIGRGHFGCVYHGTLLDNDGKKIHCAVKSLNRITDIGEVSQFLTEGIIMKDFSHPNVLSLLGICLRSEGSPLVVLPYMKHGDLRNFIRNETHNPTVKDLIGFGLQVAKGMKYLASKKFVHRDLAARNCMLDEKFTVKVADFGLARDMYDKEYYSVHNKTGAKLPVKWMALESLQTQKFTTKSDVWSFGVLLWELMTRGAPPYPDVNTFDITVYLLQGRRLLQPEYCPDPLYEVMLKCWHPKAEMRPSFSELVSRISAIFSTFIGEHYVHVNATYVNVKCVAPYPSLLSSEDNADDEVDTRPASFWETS
Procedure: The kinase inhibition assay was carried out according to the principle of MSA (Mobility Shifting Assay) detection. […] Using triple dilution method, 10 gradient concentration groups were received. Varying concentrations of compounds were transported in 384-well plates, and 100% DMSO was set as negative control. After adding kinase buffer, the 384-well plates were centrifuged and vortexed, followed by 10 min of incubation. […] Finally, adding stop solution ended kinase reaction, and the conversion% was detected by a microplate reader (Caliper EZ Reader II, Perkin Elmer, Waltham, Massachusetts, […]). The statistics were analyzed by GraphPad Prism 8, using log (inhibitor) vs. response–variable slope to fit the dose–effect curve.

[3] = system: MHCC97H cells; set-up: method as in PMID 29393886; conditions: compounds bearing a single chiral center, from our previous work; read-out: MHCC97H Cell IC50; cited from earlier work
[4] = system: LO2 (human normal liver cells); test: Toxicity towards normal cells (LO2); conditions: for IC50: Homo sapiens, read-out: IC50 on LO2
[5] = system: HaCat (human immortalized keratinocytes); test: Toxicity towards normal cells (HaCat); conditions: for IC50: Homo sapiens, HaCaT, read-out: IC50 on HaCat
[6] = system: MHCC97H cells; test: Wound healing (cell scratch) assay; format: cell-based, human; conditions: 1, 2, and 3 nM; 0, 6, 12, and 24 h; vs vehicle control
Procedure: MHCC97H cells were seeded in a 6-well plate and cultured for 24 h; subsequently, the confluent monolayer cells were scratched with a 10 μL pipette tip. After that, the wound was washed with PBS thrice to remove the non-adherent cell debris. In addition, each petri dish had media containing (R, S)-12a in gradient concentrations (1, 2, and 3 nM) added. At 0, 6, 12, and 24 h, changes of cell scratch in area were photographed by phase contrast microscope and finally measured and analyzed by Image J.

[7] = system: MHCC-97H tumor cells; test: Tumor cell morphology; format: cell-based, human; conditions: 10 and 50 nM
Procedure: Co-incubation with compound (R, S)-12a (1, 10, and 50 nM) led to a significant reduction in […] cell viability. Red arrowheads indicated distinct morphological changes, such as intracytoplasmic particles increasing, the cell shape change, and loss of adherent property. […] Aggregation, lysis, and cell debris also occurred.

[8] = system: MHCC97H cells; test: Hoechst 33342 staining for apoptosis morphology; format: cell-based, human; conditions: 1, 5, and 10 nM, 48 h, vs vehicle control
From the text: Tumor cell apoptosis is an important stage in the effective treatment of cancer. To evaluate the capacity of compound (R, S)-12a to induce apoptosis in human cancer cell lines, we used Hoechst 33342 staining to investigate the effect of compound (R, S)-12a on MHCC97H cells. Hoechst 33342 staining was used to examine apoptosis through morphological observation.

[9] = system: MHCC97H cells; test: Annexin V-FITC/PI apoptosis analysis (flow cytometry); format: cell-based, human; conditions: 48 h
Procedure: MHCC97H cells were incubated with varying concentrations of compound (R, S)-12a or diluent (1‰ DMSO, as a negative control) for 48 h. The cells were harvested and washed with PBS twice. Then, 500 μL of binding buffer suspended cells were added. The cells were stained with 5 μL of Annexin V-FITC and 10 μL of PI (KGA105, KeyGEN, BioTECH, Nanjing, Jiangsu, China). Then, the cells were incubated at room temperature for 15 min without light exposure. Apoptosis was analyzed using a CytoFLXE flow cytometer (BECKMAN COLTER, Brea, CA, USA).

[10] = system: MHCC97H cells; test: Cell cycle analysis (PI, flow cytometry); format: cell-based, human; conditions: 10 nM, 48 h
Procedure: MHCC97H cells were incubated with varying concentrations of compound (R, S)-12a or 1‰ DMSO for 48 h. The cells were collected by centrifugation, washed with PBS, and fixed in 70% ice-cold ethanol at 4 °C for 12 h. After the removal of ethanol, each sample was re-suspended in 500 μL of staining buffer containing 50 μL of RNase A and 450 μL of propidium iodide (KGA511, KeyGEN, BioTECH, Nanjing, Jiangsu, China) and incubated at room temperature, avoiding light exposure for 30 min. The DNA content of the cells was measured using a CytoFLXE flow cytometer (BECKMAN COLTER, Brea, CA, USA).

[11] = system: c-Met; test: Immunofluorescence staining and Western blotting of c-Met and p-c-Met in MHCC97H cells; format: cell-based, human
Procedure: (§1) MHCC97H cells were seeded into confocal dishes and then treated with vehicle control (1‰ DMSO) and compound (R, S)-12a (2.5 nM). Cells were washed thrice with PBS, fixed with 4% paraformaldehyde for 15 min, and punched with 0.2% triton X100 and then blocked with 500 μL of blocking buffer at room temperature for 1 h. Cells were incubated with a primary monoclonal antibody (c-Met, p-c-Met, AKT, and p-AKT) at 4 °C for 12 h and then washed with PBS thrice, followed by incubation with the fluorescence secondary antibody (Alexa Fluor 488-labeled Goat Anti-Mouse IgG (H + L)-A0428) and labeling of nuclei by Hoechst33342 (MA0126, Meilunbio, Dalian, Liaoning, China). The cells were finally visualized by a confocal microscope (Carl Zessi Microscopy LSM 880, Oberkochen, Germany). The average fluorescence intensity of FITC channel was analyzed by Image J, and the illustration was drafted by GraphPad Prism8.
(§2) MHCC97H cells were then homogenized with lysis buffer. The protein concentrations were detected using a BCA Protein Assay Kit (Pierce BCA Protein Assay Kit 23227, Thermo, Waltham, MA, USA), and their extracts were reconstituted within loading buffer (Beyotime, Shanghai, China) and inactivated for 5 min at 100 °C. Subsequently, proteins (20 μg) were fractionated by 10% SDS-PAGE and transferred to PVDF membranes. Then, PVDF membranes were blocked in 10% skimmed milk and incubated with the appropriate dilution of primary antibodies, including c-Met (Abcam, Cambridge, UK), p-c-Met (Abcam), AKT (Cell Signaling Technology), p-AKT (Cell Signaling Technology), and GAPDH (Cell Signaling Technology, […], MA, USA). The above primary antibodies were then reacted with HRP-conjugated secondary antibody, and immunoreactive bands were visualized by an ECL Detection Reagent (36208ES60, Yeasen, Shanghai, China) and were estimated through densitometry with a chemiluminescence imaging system (Tanon, Shanghai, China). Intensities of the blots were quantified with Image J and analyzed by GraphPad Prism 8.

[12] = system: AKT; test: Immunofluorescence staining and Western blotting of AKT and p-AKT in MHCC97H cells; format: cell-based, human
Procedure: as §1, §2

[13] = MTT, 48 h, mean ± SD of three independent experiments, read-out: MHCC97H Cell IC50
[14] = immunofluorescence, 2.5 nM, 48 h

## (R,R)-3-(1-(1-(3-(5-(1-((1-Methyl-1,2,3,6-tetrahydropyridin-4-yl)oxy)ethyl)pyrimidin-2-yl)phenyl)ethyl)-6-oxo-1,6-dihydropyridazin-3-yl)benzonitrile [(R, R)-12b]
[1]; [13]
  IC50: 0.13 ± 0.038 µM

## CC(Oc1cnc(-c2cccc(C(C)n3nc(-c4cccc(C#N)c4)ccc3=O)c2)nc1)C1CCN(C)CC1 [(R, R)-12a]
[2]
  IC50: 0.0287 ± 0.005 µM
[1]; [13]
  IC50: 0.03 ± 0.008 µM

## C[C@@H](c1cccc(-c2ncc(OCC3CCN(C)CC3)cn2)c1)n1nc(-c2cccc(C#N)c2)ccc1=O [(S)-5b]
[3]
  IC50: 0.118 ± 0.056 µM

## CC(Oc1cnc(-c2cccc(C(C)n3nc(-c4cccc(C#N)c4)ccc3=O)c2)nc1)C1CCN(C)CC1 [(S, R)-12a]
[2]
  IC50: 0.195 ± 0.0732 µM
[1]; [13]
  IC50: 0.205 µM and 0.21 µM

## (S,S)-3-(1-(1-(3-(5-(1-((1-Methyl-1,2,3,6-tetrahydropyridin-4-yl)oxy)ethyl)pyrimidin-2-yl)phenyl)ethyl)-6-oxo-1,6-dihydropyridazin-3-yl)benzonitrile [(S, S)-12b]
[1]; [13]
  IC50: 0.136 ± 0.052 µM

## CC(c1cccc(-c2ncc(OCC3CCN(C)CC3)cn2)c1)n1nc(-c2cccc(C#N)c2)ccc1=O (racemic) [(±)-5b]
[3]
  IC50: 0.0353 ± 0.011 µM

## CN1CCC(COc2cnc(-c3cccc(Cn4nc(-c5cccc(C#N)c5)ccc4=O)c3)nc2)CC1 [Tepotinib, tepotinib, reference compound]
[1]; Homo sapiens, MHCC97H, 48 h, read-out: MHCC97H Cell IC50
  IC50: 0.013 ± 0.002 µM
[1]; Homo sapiens, MHCC97H, read-out: IC50 on MHCC-97H
  IC50: 0.013 ± 0.002 µM
[4]
  IC50: 8.73 ± 0.841 µM
[5]
  IC50: 1.95 ± 0.349 µM

## (R,S)-3-(1-(1-(3-(5-(1-((1-Methyl-1,2,3,6-tetrahydropyridin-4-yl)oxy)ethyl)pyrimidin-2-yl)phenyl)ethyl)-6-oxo-1,6-dihydropyridazin-3-yl)benzonitrile [(R, S)-12b]
[1]; [13]
  IC50: 0.009 ± 0.005 µM

## C[C@H](c1cccc(-c2ncc(OCC3CCN(C)CC3)cn2)c1)n1nc(-c2cccc(C#N)c2)ccc1=O [(R)-5b]
[3]
  IC50: 0.0037 ± 0.001 µM

## (S,R)-3-(1-(1-(3-(5-(1-((1-Methyl-1,2,3,6-tetrahydropyridin-4-yl)oxy)ethyl)pyrimidin-2-yl)phenyl)ethyl)-6-oxo-1,6-dihydropyridazin-3-yl)benzonitrile [(S, R)-12b]
[1]; [13]
  IC50: 0.616 ± 0.0782 µM

## CC(Oc1cnc(-c2cccc(C(C)n3nc(-c4cccc(C#N)c4)ccc3=O)c2)nc1)C1CCN(C)CC1 [(S, S)-12a]
[2]
  IC50: 0.0358 ± 0.0068 µM
[1]; [13]
  IC50: 0.0483 µM and 0.048 µM

## CC(Oc1cnc(-c2cccc(C(C)n3nc(-c4cccc(C#N)c4)ccc3=O)c2)nc1)C1CCN(C)CC1 [(R, S)-12a]
[6]
  wound closure: significantly suppressed wound closure
[7]
  tumor cell morphology: the cells shrank and floated and no longer adhered to the wall
[8]
  nuclear morphology by Hoechst 33342 staining: obvious nucleolar pyknosis, DNA fragmentation, and chromatin condensation
[2]
  IC50: 0.00156 ± 0.001 µM
[9]; 1 nM
  proportions of early and late apoptosis cells: 8.9%
[9]; 5 nM
  proportions of early and late apoptosis cells: 33.3%
[1]; Homo sapiens, MHCC97H, Table 2, read-out: IC50 on MHCC-97H
  IC50: 0.002 ± 0.002 µM
[1]; [13]
  IC50: 0.0021 µM
[4]
  Selectivity Index (LO2 vs MHCC-97H): 5750.0
  IC50: 11.5 ± 1.53 µM
[10]
  proportion of cells in the G1 phase: 70.99%
  proportion of cells in the G2/M phases: 12.44%
[5]
  Selectivity Index (HaCat vs MHCC-97H): 953.5
  IC50: 1.91 ± 0.25 µM
[11]; Western blot, dose-dependent
  phosphorylation level of c-Met: decrease
[11]; [14]
  fluorescence intensity of c-Met (total c-Met protein): did not change significantly
  fluorescence intensity of p-c-Met: decreased significantly
[12]; Western blot, dose-dependent
  phosphorylation level of AKT protein: decrease
[12]; [14]
  fluorescence intensity of AKT (total AKT protein): did not change significantly
  fluorescence intensity of p-AKT: decreased significantly

Source: PMC9457593, “Design, Synthesis, and Evaluation of New Mesenchymal–Epithelial Transition Factor (c-Met) Kinase Inhibitors with Dual Chiral Centers” (Molecules, 2022)
